Measurements taken from US8754226B2, “Piperidinyl-substituted lactams as GPR119 modulators” (Array BioPharma Inc., priority 2010, dated 2014).
Structures can show the parent of a compound that is named as a salt.

Test system: modified version of the GPR119 receptor (94% identity to human receptor)
Experiment: cAMP production assay (LANCE cAMP kit, TR-FRET) in HEK-293 cells
Type: cell-based
Details: for cAMP production in HEK-293 cells: HEK-293 cells stably expressing modified GPR119, test compounds 0.2 nM to 10 μM, one-hour incubation at ambient temperature; for Fold over baseline: increase in cAMP relative to basal levels, agonist activity if 1.5-fold or greater
Procedure, shortened: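 Doxycycline-induced (1 μg/mL, overnight) HEK-293 cells expressing modified GPR119 were thawed, 2000 cells/well, and exposed to compounds (0.2 nM-10 μM final, 0.5% DMSO) for 1 h at ambient temperature in HBSS/HEPES/BSA. cAMP was measured by LANCE TR-FRET against a standard curve. Agonism was defined as ≥1.5-fold over basal.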

Structure (SMILES)	cAMP production in HEK-293 cells [nmol]	Fold over baseline
CS(=O)(=O)c1cc(F)c(O[C@H]2CCN(C3CCN(c4ncc(-c5ccccn5)cn4)CC3)C2=O)cc1F [Example 94, (S)-3-(2,5-difluoro-4-(methylsulfonyl)phenoxy)-1-(1-(5-(pyridin-2-yl)pyrimidin-2-yl)piperidin-4-yl)pyrrolidin-2-one]	6.9	2.0
CS(=O)(=O)c1cc(F)c(O[C@H]2CCCN(C3CCN(c4cnc(Cl)cn4)CC3)C2=O)cc1F [Example 164, (S)-1′-(5-chloropyrazin-2-yl)-3-(2,5-difluoro-4-(methylsulfonyl)phenoxy)-[1,4′-bipiperidin]-2-one]	21.6	4.3
CCS(=O)(=O)c1ccc(N[C@H]2CCN(C3CCN(c4ncc(Cl)cc4F)CC3)C2=O)cn1 [Example 127, (S)-1-(1-(5-chloro-3-fluoropyridin-2-yl)piperidin-4-yl)-3-(6-(ethylsulfonyl)pyridin-3-ylamino)pyrrolidin-2-one]	13.0	2.7
CCc1cnc(N2CCC(N3CC[C@H](Oc4cc(C)c(Br)cc4F)C3=O)CC2)nc1 [Example 97, (S)-3-(4-bromo-2-fluoro-5-methylphenoxy)-1-(1-(5-ethylpyrimidin-2-yl)piperidin-4-yl)pyrrolidin-2-one]	15.3	2.2
CCc1cnc(N2CCC(N3CCC(Oc4ccc(-c5nnn(C)n5)cc4)C3=O)CC2)nc1 (stereo not drawn) [Example 68, 1-(1-(5-ethylpyrimidin-2-yl)piperidin-4-yl)-3-(4-(2-methyl-2H-tetrazol-5-yl)phenoxy)pyrrolidin-2-one]	8.8	1.9
CS(=O)(=O)c1cc(F)c(N[C@H]2CCCN(C3CCN(c4cnc(Cl)cn4)CC3)C2=O)cc1F [Example 57, (S)-1′-(5-chloropyrazin-2-yl)-3-(2,5-difluoro-4-(methylsulfonyl)phenylamino)-[1,4′-bipiperidin]-2-one]	22.8	3.3
O=C(c1ccc(O[C@H]2CCN(C3CCN(c4ncc(Cl)cc4F)CC3)C2=O)c(F)c1)N1CC[C@H](O)C1 [Example 153, (S)-1-(1-(5-chloro-3-fluoropyridin-2-yl)piperidin-4-yl)-3-(2-fluoro-4-((S)-3-hydroxypyrrolidine-1-carbonyl)phenoxy)pyrrolidin-2-one]	14.3	3.1
CCc1cnc(N2CCC(N3CCCC(Oc4cc(F)c(S(C)(=O)=O)cc4F)C3=O)CC2)nc1 (stereo not drawn) [Example 26, 3-(2,5-difluoro-4-(methylsulfonyl)phenoxy)-1′-(5-ethylpyrimidin-2-yl)-1,4′-bipiperidin-2-one]	19.1	4.2
CCc1cnc(N2CCC(N3CC[C@H](Oc4cc(C)c(C#N)cc4F)C3=O)CC2)nc1 [Example 98, (S)-4-(1-(1-(5-ethylpyrimidin-2-yl)piperidin-4-yl)-2-oxopyrrolidin-3-yloxy)-5-fluoro-2-methylbenzonitrile]	31.2	3.5
CS(=O)(=O)c1cc(F)c(N[C@H]2CCN(C3CCN(c4ccc(C(F)(F)F)cn4)CC3)C2=O)c(F)c1 [Example 105, (S)-3-(2,6-difluoro-4-(methylsulfonyl)phenyl-amino)-1-(1-(5-(trifluoromethyl)pyridin-2-yl)piperidin-4-yl)pyrrolidin-2-one]	11.5	1.6
O=C1[C@@H](Nc2ccc(S(=O)(=O)C3CC3)nc2)CCN1C1CCN(c2ncc(Cl)cc2F)CC1 [Example 126, (S)-1-(1-(5-chloro-3-fluoropyridin-2-yl)piperidin-4-yl)-3-(6-(cyclopropylsulfonyl)pyri-din-3-ylamino)pyrrolidin-2-one]	10.4	2.4
Cc1cnc(N2CCC(N3CCC[C@H](Nc4ccc(S(C)(=O)=O)cc4F)C3=O)CC2)nc1 [Example 43, (S)-3-(2-fluoro-4-(methylsulfonyl)phenylamino)-1′-(5-methylpyrimidin-2-yl)-[1,4′-bipiperidin]-2-one]	6.9	1.7
CS(=O)(=O)c1ccc(N[C@H]2CCN(C3CCN(c4ccc(C(F)(F)F)cn4)CC3)C2=O)c(F)c1 [Example 103, (S)-3-(2-fluoro-4-(methyl-sulfonyl)phenylamino)-1-(1-(5-(trifluoromethyl)pyridin-2-yl)piperidin-4-yl)pyrrolidin-2-one]	15.4	2.7
CCc1cnc(N2CCC(N3CCCC(Nc4ccc(S(C)(=O)=O)c(F)c4)C3=O)CC2)nc1 (stereo not drawn) [Example 63, 1′-(5-ethylpyrimidin-2-yl)-3-(3-fluoro-4-(methylsulfonyl)phenylamino)-[1,4′-bipiperidin]-2-one]	16.2	3.4
CCS(=O)(=O)c1ccc(N[C@H]2CCN(C3CCN(c4cnc(Cl)cn4)CC3)C2=O)cn1 [Example 128, (S)-1-(1-(5-chloropyrazin-2-yl)piperidin-4-yl)-3-(6-(ethylsulfonyl)pyridin-3-ylamino)pyrrolidin-2-one]	16.6	3.4
CC(C)c1cnc(N2CCC(N3CCC(Oc4cc(F)c(S(C)(=O)=O)cc4F)C3=O)CC2)nc1 (stereo not drawn) [Example 86, 3-(2,5-difluoro-4-(methylsulfonyl)phenoxy)-1-(1-(5-isopropylpyrimidin-2-yl)piperidin-4-yl)pyrrolidin-2-one]	5.9	1.9
CS(=O)(=O)c1ccc(O[C@H]2CCN(C3CCN(c4ncc(Cl)cc4F)CC3)C2=O)c(F)c1 [Example 139, (S)-1-(1-(5-chloro-3-fluoropyridin-2-yl)piperidin-4-yl)-3-(2-fluoro-4-(methylsulfonyl)phenoxy) pyrrolidin-2-one]	26.6	5.0
CS(=O)(=O)c1ccc(O[C@H]2CCN(C3CCN(c4cnc(Cl)cn4)CC3)C2=O)cn1 [Example 69, (S)-1-(1-(5-chloropyrazin-2-yl)piperidin-4-yl)-3-(6-(methylsulfonyl)pyridin-3-yloxy)pyrrolidin-2-one]	21.3	3.2
CS(=O)(=O)c1cc(F)c(N[C@H]2CCN(C3CCN(c4ncc(Cl)cc4Cl)CC3)C2=O)c(F)c1 [Example 110, (S)-1-(1-(3,5-dichloropyridin-2-yl)piperidin-4-yl)-3-(2,6-difluoro-4-(methylsulfonyl)phenyl-amino)pyrrolidin-2-one]	29.3	2.3
CS(=O)(=O)c1cc(F)c(N[C@H]2CCCN(C3CCN(c4ncc(C#N)cn4)CC3)C2=O)cc1F [Example 51, (S)-2-(3-(2,5-difluoro-4-(methylsulfonyl)phenylamino)-2-oxo-[1,4′-bipiperidin]-1′-yl)pyrimidine-5-carbonitrile]	8.8	2.7
CS(=O)(=O)c1ccc(N[C@H]2CCN(C3CCN(c4ncc(CO)cc4Cl)CC3)C2=O)c(F)c1 [Example 156, (S)-1-(1-(3-chloro-5-(hydroxymethyl)pyridin-2-yl)piperidin-4-yl)-3-(2-fluoro-4-(methylsulfonyl)phenylamino)pyrrolidin-2-one]	17.3	2.3
CS(=O)(=O)c1ccc(N[C@H]2CCN(C3CCN(c4ncc(Cl)cn4)CC3)C2=O)c(F)c1 [Example 10, (S)-1-(1-(5-chloropyrimidin-2-yl)piperidin-4-yl)-3-(2-fluoro-4-(methylsulfonyl)phenylamino)pyrrolidin-2-one]	6.5	2.1
CS(=O)(=O)c1ccc(N[C@H]2CCN(C3CCN(c4ncc(Cl)nc4Cl)CC3)C2=O)cn1 [Example 161, (S)-1-(1-(3,5-dichloropyrazin-2-yl)piperidin-4-yl)-3-(6-(methylsulfonyl)pyridin-3-ylamino)pyrrolidin-2-one]	13.8	3.6
O=C1[C@@H](Oc2ccc(-n3cncn3)cc2)CCN1C1CCN(c2ncc(C(F)(F)F)cc2Cl)CC1 [Example 141, (S)-3-(4-(1H-1,2,4-triazol-1-yl)phenoxy)-1-(1-(3-chloro-5-(trifluoromethyl)pyridin-2-yl)piperidin-4-yl)pyrrolidin-2-one]	15.5	3.7
CC(C)c1cnc(N2CCC(N3CC[C@H](Nc4ccc(S(C)(=O)=O)cc4F)C3=O)CC2)nc1 [Example 29, (S)-3-(2-fluoro-4-(methylsulfonyl)phenylamino)-1-(1-(5-isopropylpyrimidin-2-yl)piperidin-4-yl)pyrrolidin-2-one trifluoroacetate]	11.5	2.1
O=C1[C@@H](Oc2ccc(-n3cnnn3)cc2)CCN1C1CCN(c2ncc(C(F)(F)F)cc2Cl)CC1 [Example 137, (S)-3-(4-(1H-tetrazol-1-yl)phenoxy)-1-(1-(3-chloro-5-(trifluoro-methyl)pyridin-2-yl)piperidin-4-yl) pyrrolidin-2-one]	31.7	6.5
CCc1cnc(N2CCC(N3CC[C@H](Nc4cc(C)c(S(C)(=O)=O)cc4F)C3=O)CC2)cn1 [Example 2, (S)-1-(1-(5-ethylpyrazin-2-yl)piperidin-4-yl)-3-(2-fluoro-5-methyl-4-(methylsulfonyl)phenylamino)pyrrolidin-2-one]	27.9	4.8
